From patent publication US8354454B2, “Prodrugs of oxazolidinone CETP inhibitors” (Merck Sharp & Dohme Corp., priority 2008, dated 2013) come the findings set out here.

Broadly, the half-life is how long it takes for the measured level to halve. Higher therefore signals slow decline.

The series in a line: physchem. The conditions noted are these: buffer, pH 7.68.

Method: 50 μL aliquots were removed periodically. […] Each aliquot was diluted with MeCN-d3 (150 μL), and a ^1H NMR spectrum was acquired (128 scans at 25° C., with acquisition starting 3 minutes after the aliquot was taken from the reaction).
The methods for determining the half-lives were approximately the same as described above, with variations in procedure depending on such variables as solubility and reaction rates.

For `COc1cc(F)c(C(C)C)cc1-c1ccc(C(F)(F)F)cc1CN[C@@H](C)[C@H](OC(=O)OC(COP(=O)(O)O)COP(=O)(O)O)c1cc(C(F)(F)F)cc(C(F)(F)F)c1` [Example 47, (8R,9S)-8-[3,5-bis(trifluoromethyl)phenyl]-N-{[4′-fluoro-5′-isopropyl-2′-methoxy-4-(trifluoromethyl)biphenyl-2-yl]methyl}-1,1-dihydroxy-6-oxo-4-[(phosphonooxy)methyl]-2,5,7-trioxa-1λ^5-phosphadecan-9-aminium1-oxide chloride], the half-life is approximately 2.5 h.
